In patent US20230147455A1, “COMPOUNDS FOR THE PROPHYLAXIS AND/OR TREATMENT OF ACUTE RESPIRATORY DISTRESS SYNDROME” (SERVICIO ANDALUZ DE SALUD, priority 2020, published 2023):
Like-named read-outs stand apart in the source and are kept apart here.

Assays:
renin and Ang II = conditions: rat lung tissues treated with lipopolysaccharide; cited from earlier work
[1] = phase III study conducted in 2000; cited from earlier work
[2] = patients with ALI and ARDS; cited from earlier work
[3] = in vivo; cited from earlier work
COVID-19 = assay: Retrospective multicenter cohort study of patients hospitalized with COVID-19, intrahospital mortality; assay type: in vivo, human
SARS-CoV-2 = assay: Pilot randomized clinical trial: ICU admission of hospitalized patients with or without calcifediol; assay type: in vivo; conditions: calcifediol YES group, 42 patients
Procedure: Preliminary study performed from 10 Mar. 2020 on 72 patients admitted in pneumology department at Hospital Universitario Reina Sofia in Cordoba, according to hospital protocol.
Administration of vitamin D (calcifediol):
The difference is statistically significant: Chi-squared with Yates' correction p=0.0001.
As shown in the results, progression of the disease requiring admission to the ICU occurred in only 1 of all the patients who were treated with calcifediol.

[4] = 14 clinical trials with 1303 patients; cited from earlier work
[5] = cited from earlier work

C=C1/C(=C\C=C2/CCC[C@]3(C)[C@@H]([C@H](C)CCCC(C)(C)O)CC[C@@H]23)C[C@@H](O)C[C@@H]1O [Calcitriol, 1-alpha,25-dihydroxycholecalciferol]
expression of renin and Ang II (renin and Ang II): suppresses the expression of renin and Ang II

CC(=O)N1CCN(c2ccc(OCC3COC(Cn4ccnc4)(c4ccc(Cl)cc4Cl)O3)cc2)CC1 (centres unmarked) [Ketoconazole]
mortality and secondary outcome measures [1]: did not show any improvement in mortality or in secondary outcome measures

CC(=O)N[C@@H](CS)C(=O)O [N-acetylcysteine]
mortality benefit [2]: have not shown any mortality benefits

C[C@H](/C=C/[C@H](C)C(C)(C)O)[C@H]1CC[C@H]2/C(=C/C=C3C[C@@H](O)C[C@H](O)C3)CCC[C@]12C [Paricalcitol, 19-nor-1,25-(OH)2-vitamin D2]
effect on LPS-induced acute lung injury [3]: improved the LPS-induced acute lung injury or SARS by maintaining the alveolar barrier function

C=C1CC[C@H](O)C/C1=C/C=C1\CCC[C@]2(C)[C@@H]([C@H](C)CCCC(C)(C)O)CC[C@@H]12 [calcifediol, 25-hydroxycholecalciferol]
mortality rate (COVID-19; 79 hospitalized COVID-19 patients who received calcifediol, vs 20.7% without, p <0.001): 5.1% | HR for mortality (COVID-19; fitted Cox proportional hazards models, calcifediol vs no calcifediol): 0.17 (95% CI: 0.05 to 0.51) | death OR (COVID-19; patients who received calcifediol compared with patients who did not): 0.20 (95% CI, 0.07 to 0.57) | reduction of ICU admissions and death by process (COVID-19; patients with COVID-19, general statement at head of Example 2): at least 25% | ICU NO (number of patients not admitted to the ICU) (SARS-CoV-2): 41 | ICU YES (number of patients admitted to the ICU) (SARS-CoV-2; vs 13 of 30 without calcifediol, Chi-squared with Yates' correction p=0.0001): 1

nitric oxide [inhaled NO]
oxygenation, survival, days off a ventilator [4]: only a temporary improvement in oxygenation without the benefit of survival or an increase in days off a ventilator

vitamin D
mortality at 28 days ([5]; by intramuscular or intravenous injection, vs placebo 40.8%): 25.6% | OR, mortality at 28 days ([5]; grouped analysis of the 9 RCTs, 95% CI 0.46-1.15): 0.73 | mortality at 28 days ([5]; grouped analysis of the 9 RCTs, vs placebo 21.7%): 20.4% | OR, mortality at 28 days ([5]; high daily dose, CI 95% 0.51-1.36): 0.83 | mortality at 28 days ([5]; high daily dose, vs placebo 19.8%): 20.9% | OR, mortality at 28 days ([5]; low daily dose, 95% CI 0.32-1.68): 0.74 | mortality at 28 days ([5]; low daily dose, vs placebo 21.3%): 15.6% | OR, mortality at 28 days ([5]; only enterally, 95% CI 0.88-1.57): 1.19 | mortality at 28 days ([5]; only enterally, vs placebo 18.2%): 19.9% | duration of the stay in the ICU, standard mean difference [SMD] ([5]; vitamin D vs placebo, 95% CI −0.61 to 0.01): −0.30 | duration of hospital stay, SMD ([5]; vitamin D vs placebo): −0.17 | duration of mechanical ventilation, SMD ([5]; vitamin D vs placebo): −0.41
